According to patent publication EP1206482B1, “METHOD FOR COUPLING, IN SOLUTION, A PEPTIDE WITH AT LEAST ANOTHER COMPOUND AND USES THEREOF” (INSTITUT PASTEUR DE LILLE, priority 1999, dated 2001):
Starred links: 1 amine or outer side, 2 acyl side, 3 side chain; linkers in the order of their positions; H or OH if unused. Non-standard residues stand in square brackets, D forms with d. No end group written: not given here. Hydrazinoacetyl = O=C(CNN[*:1])[*:2]

Test system: molécules de classe II du CMH
Test: Quantification of surface expression of MHC class II molecules by flow cytometry (anti-HLA DR-FITC) after 24 h stimulation of cells with peptides or lipopeptides
Format: cell-based, humaine
Settings: for Moyenne: mean fluorescence of treated COLO 205 cells; for Rapport: ratio of mean fluorescence of treated to untreated COLO 205 cells
Protocol: Les cellules COLO 205 (lignée cellulaire humaine issue d'un carcinome de colon) proviennent de la banque de cellules ATCC (American Type Culture Collection). Elles sont cultivées en milieu RPMI 1640 (Gibco BRL, Courbevoie, France) avec 10% de sérum de veau foetal (SVF) et 5 mM de pyruvate de sodium, et incubées à 37°C en présence de 5% de CO2. Les cellules sont stimulées pendant 24 heures avec différentes concentrations (35, 50 ou 65 µM) de peptides ou de lipopeptides. Les cellules sont ensuite marquées pendant 1 heure à 4°C avec 10 µl d'anticorps de souris anti-HLA DR de classe-II, couplé à la FITC (clone TAL, 1B5, Cymbus Biotechnology Ltd, Hants, Grande-Bretagne) dans 10% de SVF/PBS, puis lavées 3 fois par du SVF/PBS.
L'expression de surface des molécules de classe II du CMH est analysée par cytométrie de flux sur un cytomètre Coulter EPICS II, à raison de 10 000 évènements par échantillon. L'intensité de fluorescence observée est directement proportionnelle à la quantité de molécules de classe II du CMH présente à la surface des cellules. La moyenne de fluorescence observée pour les cellules non traitées et pour les cellules traitées (colonne « Moyenne» dans le tableau II) permet de calculer un rapport entre la moyenne de fluorescence des cellules traitées et la moyenne de fluorescence des cellules non traitées (colonne « Rapport » dans le tableau II).

Row | Substance | Moyenne (35 µM) | Moyenne (50 µM) | Moyenne (65 µM) | Rapport (35 µM) | Rapport (50 µM) | Rapport (65 µM)
1 | H2N-NH-CH2CO-PSRENQNAVKIQKLSVVLRREQKHRVERLAFRNQSLPF-NH2 ([Hydrazinoacetyl]PSRENQNAVKIQKLSVVLRREQKHRVERLAFRNQSLPF-NH2; N-terminus assumed; SMILES CC[C@H](C)[C@H](NC(=O)[C@H](CCCCN)NC(=O)[C@@H](NC(=O)[C@H](C)NC(=O)[C@H](CC(N)=O)NC(=O)[C@H](CCC(N)=O)NC(=O)[C@H](CC(N)=O)NC(=O)[C@H](CCC(=O)O)NC(=O)[C@H](CCCNC(=N)N)NC(=O)[C@H](CO)NC(=O)[C@@H]1CCCN1C(=O)CNN)C(C)C)C(=O)N[C@@H](CCC(N)=O)C(=O)N[C@@H](CCCCN)C(=O)N[C@@H](CC(C)C)C(=O)N[C@@H](CO)C(=O)N[C@H](C(=O)N[C@H](C(=O)N[C@@H](CC(C)C)C(=O)N[C@@H](CCCNC(=N)N)C(=O)N[C@@H](CCCNC(=N)N)C(=O)N[C@@H](CCC(=O)O)C(=O)N[C@@H](CCC(N)=O)C(=O)N[C@@H](CCCCN)C(=O)N[C@@H](Cc1c[nH]cn1)C(=O)N[C@@H](CCCNC(=N)N)C(=O)N[C@H](C(=O)N[C@@H](CCC(=O)O)C(=O)N[C@@H](CCCNC(=N)N)C(=O)N[C@@H](CC(C)C)C(=O)N[C@@H](C)C(=O)N[C@@H](Cc1ccccc1)C(=O)N[C@@H](CCCNC(=N)N)C(=O)N[C@@H](CC(N)=O)C(=O)N[C@@H](CCC(N)=O)C(=O)N[C@@H](CO)C(=O)N[C@@H](CC(C)C)C(=O)N1CCC[C@H]1C(=O)N[C@@H](Cc1ccccc1)C(N)=O)C(C)C)C(C)C)C(C)C) [peptide 22Sc] | 1,36 | 1,60 | 1,67 | 1,8 | 2,18 | 2,27
2 | palm-NH-NH-CH2CO-PSRENQNAVKIQKLSVVLRREQKHR-VERLAFRNQSLPF-NH2 [peptide 23Sc] | 4,72 | 4,51 | 5,55 | 9,16 | 6,15 | 7,5
